{"source": "patent US5411879A", "about": "“Fatty acyl reductases” (Calgene Inc., priority 1993, dated 1995)", "key": {"[1]": {"molecular_target": "T1, jojoba acyl-CoA reductase (Simmondsia chinensis, UniProt Q9XGY7)", "T1 sequence (Q9XGY7 1-493)": "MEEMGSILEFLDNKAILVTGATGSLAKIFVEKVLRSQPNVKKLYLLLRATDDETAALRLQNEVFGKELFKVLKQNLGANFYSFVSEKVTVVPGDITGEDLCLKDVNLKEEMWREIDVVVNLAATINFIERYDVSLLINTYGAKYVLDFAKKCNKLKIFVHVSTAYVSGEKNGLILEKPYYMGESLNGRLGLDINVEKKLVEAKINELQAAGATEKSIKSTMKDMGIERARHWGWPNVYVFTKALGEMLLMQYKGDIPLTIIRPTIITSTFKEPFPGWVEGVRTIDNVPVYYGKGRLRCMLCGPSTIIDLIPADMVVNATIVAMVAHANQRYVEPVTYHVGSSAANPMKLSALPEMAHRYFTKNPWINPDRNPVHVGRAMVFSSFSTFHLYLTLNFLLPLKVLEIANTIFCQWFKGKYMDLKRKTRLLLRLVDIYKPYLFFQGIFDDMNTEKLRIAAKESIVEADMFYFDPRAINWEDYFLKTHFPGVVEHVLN", "conditions": "for inhibitory effect on reductase activity (in words): known reductase/synthase inhibitors and sulphydryl blocking agents", "experimental": "Reductase activity in a microsomal membrane preparation is measured by incubation of 20 μM [1-^14 C]acyl-CoA (usually tetracosenoyl-CoA, sp. act. 2-5 Ci/mol) with the sample to be assayed and 2 mM NADPH, in a total volume of 0.25 ml. The incubation mixture also contains 10% w/v glycerol, 1 mM DTT, and is buffered with 50 mM HEPES (4-[2-hydroxyethyl]-1-piperazineethane-sulfonic acid) (HEPES, here and as refered to hereafter is added from a 1M stock solution adjusted to pH 7.5) .\nThe assay is started by the addition of acyl-CoA substrate and the incubation is carried out at 30° C. for one hour. The assay is terminated by placing the assay tube on ice and immediately adding 0.25 ml isopropanol:acetic acid (5:1 v/v) . Unlabeled wax esters (0.1 mg) and oleyl alcohol (0.1 mg) are added as carriers. The [^14 C] lipids are extracted by the scaled-down protocol of Hara and Radin (Anal. Biochem. (1978) 90:420). Six ml of hexane/isopropanol (3:2, v/v) is added to the terminated assay. The sample is vortexed, 2 ml of aqueous sodium sulphate solution (5.5% w/v) is added, and the sample is again vortexed.\nThe microsomal membrane preparation described above is used for further characterization of the reductase enzyme. […] Characterization experiments were conducted at pH 7.5, which is close to the presumed physiological pH of the cytoplasm.\n1. Salt Effects: A variety of salts were examined for their effect on reductase activity using a standard concentration of 0.5M for monobasic salts. Salts with divalent cations or anions were examined at 0.167M (to give the same ionic strength as the 0.5M monobasic salts) and also at 0.5M.\n4. Reductase Inhibitor Assays: Several known inhibitors of other types of reductase proteins were tested for their effect on the jojoba acyl-CoA reductase activity.\nSulphydryl blocking agents were also screened for their effect on reductase activity."}, "[2]": {"system": "jojoba acyl-CoA reductase", "assay": "Acyl (substrate) specificity of the reductase, microsomal membrane preparation", "format": "biochemical", "conditions": "substrates compared at 10 uM, 0.5M NaCl", "text": "(§1) 3. […] NaCl concentration in these assays is 0.5M."}, "[3]": {"molecular_target": "T1, jojoba acyl-CoA reductase", "assay": "Competitive inhibition experiment, unlabelled palmitoyl-CoA vs [1-14C]tetracosenoyl-CoA", "format": "biochemical", "design": "The microsomal membrane preparation described above is used for further characterization of the reductase enzyme; from tissue; host or cells: developing jojoba embryos (seed coats removed), microsomal membrane preparation", "conditions": "unlabelled inhibitor 0-30 μM; [1-14C]tetracosenoyl-CoA 20 μM; read-out: concentration giving 50% inhibition of reductase activity towards tetracosenoyl-CoA"}, "[4]": {"molecular_target": "T1, jojoba acyl-CoA reductase", "assay": "Acyl (substrate) specificity of the reductase, microsomal membrane preparation", "format": "biochemical", "design": "The microsomal membrane preparation described above is used for further characterization of the reductase enzyme; from tissue; host or cells: developing jojoba embryos (seed coats removed), microsomal membrane preparation", "conditions": "acyl-CoA thioester as substrate at 10 μM; 0.5M NaCl; pH 7.5", "text": "as §1"}, "[5]": {"molecular_target": "T2, jojoba acyl reductase (Simmondsia chinensis, UniProt Q9XGY7)", "T2 construct": "The microsomal membrane preparation described above is used for further characterization of the reductase enzyme; from tissue; host or cells: developing jojoba embryos (seed coats removed), microsomal membrane preparation", "T2 sequence (Q9XGY7 1-493)": "T1 sequence (Q9XGY7 1-493)", "assay": "Detergent inhibition of reductase activity and its reversibility", "format": "biochemical", "text": "Often, detergents which are used to solubilize membrane proteins are found to inhibit the enzymatic activity of a desired protein. […] However, as apparent detergent inhibition of reductase activity may be due to some effect other than irreversible inhibition of the enzyme, the reversibility of inhibition by CHAPS was examined.\nA protocol for solubilizing jojoba acyl reductase activity utilizing the detergent CHAPS has been devised which yields approximately 85% of the reductase activity from the microsomal membrane preparation. This method is discussed in detail in Example 2. Similarly, studies of reversibility of apparent reductase inhibition by other detergents may be conducted to identify other useful detergents for solubilization of acyl reductase activity for jojoba or other candidate reductases."}, "[6]": {"system": "jojoba acyl-CoA reductase", "conditions": "previously shown, Pollard et al.; cited from earlier work"}, "[7]": {"conditions": "0.5M for monobasic salts, divalent salts at 0.167M and 0.5M"}, "[8]": {"conditions": "millimolar concentrations (given for CoA and NADP+)"}}, "note": "Read-outs that look alike come from different tables or passages of the source.", "data": [{"compound": "O[C@H](CS)[C@H](O)CS", "note": "(racemic) [Dithiothreitol]", "values": [{"measurement": "effect on reductase activity (in words)", "setting": "[1]; other effectors, pH 7.5", "result": "stimulatory"}]}, {"compound": "CCCCCCCCCCCCCCCC(=O)SCCNC(=O)CCNC(=O)[C@H](O)C(C)(C)COP(=O)(O)OP(=O)(O)OC[C@H]1O[C@@H](n2cnc3c(N)ncnc32)[C@H](O)[C@@H]1OP(=O)(O)O", "note": "[16:0 Acyl-CoA, palmitoyl-CoA]", "values": [{"measurement": "activity as substrate of the reductase (in words)", "setting": "[2]", "result": "barely above background"}, {"measurement": "IC50", "setting": "[3]", "result": 5, "unit": "µM"}]}, {"compound": "CCCCCCCCCCCCCCCCCC(=O)SCCNC(=O)CCNC(=O)[C@H](O)C(C)(C)COP(=O)(O)OP(=O)(O)OC[C@H]1O[C@@H](n2cnc3c(N)ncnc32)[C@H](O)[C@@H]1OP(=O)(O)O", "note": "[18:0 Acyl-CoA]", "values": [{"measurement": "Reductase Activity, Acyl-CoA (10 μM)", "setting": "[4]", "result": 1.4, "unit": "pmol/min/µL"}]}, {"compound": "CCCCCCCC/C=C\\CCCCCCCCCC(=O)SCCNC(=O)CCNC(=O)[C@H](O)C(C)(C)COP(=O)(O)OP(=O)(O)OC[C@H]1O[C@@H](n2cnc3c(N)ncnc32)[C@H](O)[C@@H]1OP(=O)(O)O", "note": "[20:1 Acyl-CoA]", "values": [{"measurement": "Reductase Activity, Acyl-CoA (10 μM)", "setting": "[4]", "result": 1.0, "unit": "pmol/min/µL"}]}, {"compound": "CCCCCCCC/C=C\\CCCCCCCCCCCC(=O)SCCNC(=O)CCNC(=O)[C@H](O)C(C)(C)COP(=O)(O)OP(=O)(O)OC[C@H]1O[C@@H](n2cnc3c(N)ncnc32)[C@H](O)[C@@H]1OP(=O)(O)O", "note": "[22:1 Acyl-CoA]", "values": [{"measurement": "Reductase Activity, Acyl-CoA (10 μM)", "setting": "[4]", "result": 1.0, "unit": "pmol/min/µL"}]}, {"compound": "C[C@H](CCC(=O)NCCC[N+](C)(C)CCCS(=O)(=O)[O-])[C@H]1CC[C@H]2[C@@H]3[C@H](O)C[C@@H]4C[C@H](O)CC[C@]4(C)[C@H]3C[C@H](O)[C@]12C", "note": "[CHAPS, 3-[(3-cholamidopropyl)-dimethyl-ammonio]-1-propanesulfonate]", "values": [{"measurement": "inhibition of reductase activity by detergent (in words)", "setting": "[5]; at concentrations above the CMC", "result": "strong inhibition"}, {"measurement": "reversibility of detergent inhibition (in words)", "setting": "[5]; enzyme exposed on ice, then returned to a concentration at or below the CMC", "result": "complete recovery of reductase activity"}]}, {"compound": "[Ca+2].[Cl-].[Cl-]", "note": "[CaCl2]", "values": [{"measurement": "salt effect on reductase activity (in words)", "setting": "[1]; [7]", "result": "stimulate reductase activity"}]}, {"compound": "C/C=C/C/C=C/CCC(=O)[C@H]1O[C@H]1C(N)=O", "note": "[Cerulinen]", "values": [{"measurement": "inhibitory effect on reductase activity (in words)", "setting": "[1]", "result": "no strong inhibitory effect"}]}, {"compound": "CC(C)(COP(=O)(O)OP(=O)(O)OC[C@H]1O[C@@H](n2cnc3c(N)ncnc32)[C@H](O)[C@@H]1OP(=O)(O)O)[C@@H](O)C(=O)NCCC(=O)NCCS", "note": "[CoA, CoenzymeA]", "values": [{"measurement": "effect on reductase activity (in words)", "setting": "[1]; [8]", "result": "significant inhibition"}]}, {"compound": "[Cl-].[K+]", "note": "[KCl]", "values": [{"measurement": "salt effect on reductase activity (in words)", "setting": "[1]; [7]", "result": "stimulate reductase activity"}]}, {"compound": "N#CS", "note": "[KSCN]", "values": [{"measurement": "salt effect on reductase activity (in words)", "setting": "[1]", "result": "no stimulation or marginal stimulation"}]}, {"compound": "[Cl-].[Li+]", "note": "[LiCl]", "values": [{"measurement": "salt effect on reductase activity (in words)", "setting": "[1]; [7]", "result": "stimulate reductase activity"}]}, {"compound": "CC[C@H](C)C(=O)O[C@H]1C[C@@H](C)C=C2C=C[C@H](C)[C@H](CC[C@@H]3C[C@@H](O)CC(=O)O3)[C@H]21", "note": "[Mevinolin]", "values": [{"measurement": "concentration at which an effect on jojoba acyl-CoA reductase activity was seen", "setting": "[1]; only had an effect at relatively high concentrations", "result": 100, "unit": "µM"}]}, {"compound": "[Cl-].[Cl-].[Mg+2]", "note": "[MgCl2]", "values": [{"measurement": "salt effect on reductase activity (in words)", "setting": "[1]; [7]", "result": "stimulate reductase activity"}]}, {"compound": "CCN1C(=O)C=CC1=O", "note": "[N-ethylmaleimide]", "values": [{"measurement": "inhibitory effect on reductase activity (in words)", "setting": "[1]", "result": "strongly inhibit"}]}, {"compound": "NC(=O)c1ccc[n+]([C@@H]2O[C@H](COP(=O)([O-])OP(=O)(O)OC[C@H]3O[C@@H](n4cnc5c(N)ncnc54)[C@H](O)[C@@H]3O)[C@@H](O)[C@H]2O)c1", "note": "[NAD+]", "values": [{"measurement": "effect on reductase activity (in words)", "setting": "[1]; [8]", "result": "marginal effects"}]}, {"compound": "NC(=O)C1=CN([C@@H]2O[C@H](COP(=O)(O)OP(=O)(O)OC[C@H]3O[C@@H](n4cnc5c(N)ncnc54)[C@H](O)[C@@H]3O)[C@@H](O)[C@H]2O)C=CC1", "note": "[NADH]", "values": [{"measurement": "cofactor-dependent reductase activity relative to the NADPH-dependent activity", "setting": "[1]; cofactor in place of NADPH, not measurable above background", "result": "< 2", "unit": "%"}, {"measurement": "effect on reductase activity (in words)", "setting": "[1]; [8]", "result": "marginal effects"}]}, {"compound": "NC(=O)c1ccc[n+]([C@@H]2O[C@H](COP(=O)([O-])OP(=O)(O)OC[C@H]3O[C@@H](n4cnc5c(N)ncnc54)[C@H](OP(=O)(O)O)[C@@H]3O)[C@@H](O)[C@H]2O)c1", "note": "[NADP+]", "values": [{"measurement": "effect on reductase activity (in words)", "setting": "[1]; [8]", "result": "significant inhibition"}]}, {"compound": "O=S(=O)([O-])[O-].[Na+].[Na+]", "note": "[Na2 SO4]", "values": [{"measurement": "salt effect on reductase activity (in words)", "setting": "[1]; [7]", "result": "stimulate reductase activity"}]}, {"compound": "[Cl-].[Na+]", "note": "[NaCl]", "values": [{"measurement": "stimulation of reductase activity", "setting": "[1]; microsomes, 500000 µM", "result": "Up to 15 fold"}]}, {"compound": "O=C(O)CN(CCN(CC(=O)O)CC(=O)O)CC(=O)O", "note": "[ethylenediaminetetraacetic acid]", "values": [{"measurement": "optimum concentration for stimulation of reductase activity", "setting": "[1]", "result": 2.5, "unit": "mM"}, {"measurement": "effect on reductase activity (in words)", "setting": "[1]; pH 7.5", "result": "some stimulation"}]}, {"compound": "NC(=O)CI", "note": "[iodoacetamide]", "values": [{"measurement": "inhibitory effect on reductase activity (in words)", "setting": "[1]", "result": "no effect"}]}, {"compound": "O=C(O)c1cc[c]([Hg][OH])cc1", "note": "[para-hydroxymercuribenzoate]", "values": [{"measurement": "inhibitory effect on reductase activity (in words)", "setting": "[1]", "result": "some inhibitory effect"}]}, {"compound": "palmitoyl-ACP [16:0 Acyl-ACP]", "values": [{"measurement": "activity as substrate of the reductase (in words)", "setting": "[2]", "result": "high"}]}, {"compound": "stearoyl-ACP", "values": [{"measurement": "activity as substrate of the reductase (in words)", "setting": "[6]", "result": "activity as a substrate"}]}]}
